Measured values taken from patent US6821761B2, “Sphingolipid ceramide N-deacylase, methods for producing sphingolipids and sphingolipid derivatives, and sphingolipid ceramide N-deacylase gene” (Takara Bio, Inc., priority 1994, dated 2004).

What was measured:
ceramidase in B16 cells = experiment: Measurement of ceramidase activity in B16 cells with labeled ceramide substrates; format: biochemical; conditions: B16 cell suspension, 50 μg protein, 0.5% Triton X-100, 37° C. 3 or 6 hours; FIG. 16
Description: Measurement of ceramidase activity in B16 cells using radioisotope labeled ^14C ceramide (C12−^14C-Cer) and fluorescent sphingolipid derivative NBD ceramide (C12-NBD-Cer) as the substrate:
A cell suspension was prepared by suspending 6×10^6 of B16 cells in 200 μl of 10 mM phosphate buffer. The amount of the protein was determined using MicroBCA™ protein assay reagent (manufactured by Pierce).
Under acidic condition in 10 μl of 50 MM acetate buffer (pH 4.0) containing 10 μl of the cell suspension (diluted to a protein content of 50 μg), 200 pmol of C12-NBD-Cer obtained in Example 21 or 100 pmol of C12−^14C-Cer obtained using lauric acid instead of palmitic acid used in Example 20, as the substrate, and 0.5% Triton X-100. […]
Each of the samples was developed on thin layer chromatography (developing solvent, chloroform/methanol/25% liquid ammonia =90/20/0.5 by volume), and the released ^14C fatty acid was determined using BAS 1000 Imaging Analyzer (manufactured by Fuji Photo Film) to calculate the reaction ratio. Also, the released NBD fatty acid was determined using Chromatoscanner CS 9000 (manufactured by Shimadzu Corporation), and the reaction ratio was calculated.

[1] = system: Limulus polyphemus ceramidase; experiment: Ceramidase activity of Limulus polyphemus serum / purified ceramidase on ceramide substrates; format: biochemical
Description: A 10 μl of serum obtained by centrifugation of Limulus polyphemus blood was allowed to undergo 18 hours of reaction at 37° C. with 10 μl of 50 mM acetate buffer (pH 5.0) containing 1 nmol of NBD ceramide prepared in Example 21 and 0.5% Triton X-100. After completion of the reaction, the reaction solution was developed on thin layer chromatography (developing solvent: chloroform/methanol/25% liquid ammonia=90/20/0.5 by volume) and detected under an ultraviolet ray lamp.
In order to confirm that the ceramidase activity found in the Limulus polyphemus serum is really a ceramidase-derived activity, the ceramidase was purified to find that it was an acidic ceramidase having an optimum pH of 4.5 and a molecular weight of about 205 kDa when measured by a gel filtration method.

[2] = system: SCDase derived from the genus Pseudomonas; experiment: Fatty acid exchange reaction on various acceptors by SCDase; format: biochemical; conditions: 1 nmol [1-14C] stearic acid, 1 nmol sphingolipid, 30 μU SCDase, acetate buffer pH 6.0, 0.8% Triton X-100, overnight 37° C., galactosyl ceramide = 100
Description: A 10 μl portion of 50 mM acetate buffer (pH 6.0) containing 1 nmol [1−^14C] stearic acid, 1 nmol sphingolipid, 0.8% Triton X-100 and 30 μU SCDase derived from the genus Pseudomonas was allowed to react overnight at 37° C.
The thus obtained reaction solution was developed on thin layer chromatography and exposed to an imaging plate to carry out determination of the reaction product by BAS 1000 Imaging Analyzer (manufactured by Fuji Photo Film).

crude SCDase = experiment: Substrate specificity of crude SCDase (culture supernatant) from Shewanella alga NS-589; format: biochemical; conditions: SCDase produced by Shewanella alga NS-589
Source text: Acting on acidic glycolipids (GM1, GM2, GD1a, GD1b, sialosyl paragloboside, etc.), neutral glycolipids (lactosyl ceramide, Gb4, Gb5, etc.), sulfated glycolipids (sulfatide, etc.) and sphingomyelin which is a sphingophospholipid, thus forming the corresponding lysosphingolipid and fatty acid in each case.
The substrate specificity was examined as follows. Shewanella alga NS-589 was inoculated into a synthetic medium (dipotassium hydrogenphosphate 0.05%, ammonium chloride 0.05%, sphingomyelin 0.1%, sodium taurodeoxycholate 0.1%, sodium chloride 2%, 2,6-O-dimethyl-β-cyclodextrin 0.1%; pH 7.4). Two days after shaking cultivation at 30° C., the strain was removed to obtain a supernatant by centrifuge. A 50 mM acetate buffer ([…]; pH 6.0) containing 3 μl of the supernatant and 1.6% Triton X-100 was allowed to react with 5 μl of 1.2 mM of each of sphingolipids shown in Table 2 at 37° C. for 16 hours, and then the resulting mixture was analyzed with a thin layer chromatography.
The digestion ratios of various substrates by a crude SCDase obtained from Shewanella alga NS-589.

Shewanella alga NS-589 = experiment: Conversion of sphingomyelin into sphingosylphosphorylcholine by culture of Shewanella alga NS-589; format: cell-based; conditions: synthetic medium, sphingomyelin 0.1%, 30° C. shaking 2 days, TLC
Description: Shewanella alga NS-589 was inoculated into 200 ml of a synthetic medium (dipotassium hydrogenphosphate 0.05%, ammonium chloride 0.05%, sphingomyelin 0.1%, sodium taurodeoxycholate 0.1%, sodium chloride 2%, 2,6-O-dimethyl-β-cyclodextrin 0.1%; pH 7.4) and incubated therein at 30° C. under shaking for 2 days.
Then the cells were eliminated by centrifuging the culture medium to obtain the culture supernatant which was then analyzed by thin layer chromatography. […] This culture medium was added to a C18 reversed phase column [Preoperative C18 125A (manufactured by Millipore), packing: 30 g, column diameter: 30 mm, open column]. After desalting and washing with 300 ml of water, the column was eluted with 300 ml of methanol and 300 ml of chloroform/methanol=1/1 (by volume). Then the sphingosylphosphorylcholine was eluted into the methanol fraction. After removing the solvent in the sphingosylphosphorylcholine fraction with a rotary evaporator, the residue was added to a silica gel 60 column (manufactured by Merck) and fractionated with chloroform/methanol/water=5/4/1 (by volume). Further, the solvent in the sphingosylphosphorylcholine fraction thus obtained was removed with a rotary evaporator and the residue was freeze-dried. Thus 47.6 mg of purified sphingosylphosphorylcholine could be obtained.

SCDase = experiment: Substrate specificity (hydrolysis) of purified SCDase from Pseudomonas sp. TK-4; format: biochemical; conditions: 10 nmol sphingolipid, 2 milliunits enzyme, 37° C. 16 h, 20 mM sodium acetate buffer pH 5.0, 0.8% Triton X-100, TLC
Description: The enzyme activity of the SCDase is assayed in the following manner. To 10 μl of a substrate solution [50 mM acetate buffer solution (pH 6.0) containing 2 mM of asialo GM1 and 0.6% (w/v) of Triton X-100] is added 10 μl of an enzyme solution. After reacting at 37° C. for 30 minutes, the enzyme reaction is ceased by heating the mixture to 100° C. for 3 minutes. Then the reaction mixture is concentrated to dryness with a centrifugal concentrator. Then the obtained concentrate is dissolved in 10 μl of 50% methanol and placed on a TLC plate (silica gel 60; manufactured by Merck & Co., Inc.). After developing with chloroform/methanol/0.02% aqueous solution of CaCl2 (5/4/1 by volume), the sphingolipid is subjected to color development by the orcinol-sulfuric acid method. […] This spot is determined by using a TLC chromatoscanner (Shimadzu CS-9000, manufactured by Shimadzu Corporation) at a wavelength of 540 nm.
Sphingolipids (10 nmol each) were incubated at 37° C. for 16 h with 2 milliunits of the enzyme in 20 μl of 20 mM sodium acetate buffer, pH 5.0, containing 0.8% Triton X-100. The extent of hydrolysis was examined by TLC and calculated.

CCCCCCCCCCCCC/C=C/[C@@H](O)[C@H](CO)NC(=O)CCCCCCCCCCCNc1ccc([N+](=O)[O-])c2nonc12 [NBD ceramide]
Action of acidic ceramidase in B16 cells on substrate (ceramidase in B16 cells): hardly | Action of alkaline ceramidase in B16 cells on substrate (ceramidase in B16 cells): acts well | Hydrolysis of substrate by Limulus polyphemus serum (ceramidase activity) ([1]; 1 nmol substrate, 10 μl serum, acetate buffer pH 5.0, 0.5% Triton X-100, 18 hours 37° C., TLC under UV): a newly formed NBD aminododecanoic acid was detected

Sphingomyelin
Relative activity (%) [2]: 2.9% | Substrate specificity: acting on the substrate, forming the corresponding lysosphingolipid and fatty acid (crude SCDase): Acting on | Sphingomyelin converted into sphingosylphosphorylcholine (Shewanella alga NS-589): 80% | Digestion ratio (%) (SCDase): 28%

CCCCCCCCCCCCC/C=C/[C@@H](O)[C@H](CO)NC(=O)CCCCCCCCCCCCCCCCC [N-stearoylsphingosine (C18:0, d18:1), N-stearoylsphingosine]
Hydrolysis by purified Limulus polyphemus ceramidase (substrate preference) ([1]; purified ceramidase): most efficiently
